{"source": "ChEMBL document CHEMBL6177968", "about": "“Development of sulfamoylbenzamide-based capsid assembly modulators for hepatitis B virus capsid assembly” (Eur J Med Chem, 2025)", "key": {"[1]": {"experiment": "Selectivity index, ratio of CC50 for cytotoxicity in human HepG2.2.15 cells assessed as reduction in cell viability to EC50 for antiviral activity against HBV in human HepG2.2.15 cells assessed as reduction in viral replication", "assay_type": "toxicity, cell-based", "conditions": "read-out: Ratio CC50/EC50"}, "[2]": {"experiment": "Metabolic stability in rat liver microsomes assessed as compound remaining measured after 30 mins", "assay_type": "ADME, Microsome", "conditions": "read-out: Stability"}, "[3]": {"experiment": "Metabolic stability in human liver microsomes assessed as compound remaining measured after 30 mins", "assay_type": "ADME, Microsome", "conditions": "read-out: Stability"}, "[4]": {"experiment": "Cytotoxicity in African green monkey Vero cells", "assay_type": "toxicity, cell-based, Chlorocebus sabaeus"}, "[5]": {"experiment": "Cytotoxicity in HFL1 cells", "assay_type": "toxicity, cell-based", "conditions": "human"}, "[6]": {"experiment": "Cytotoxicity in mouse L929 cells", "assay_type": "toxicity, cell-based"}, "[7]": {"target": "Voltage-gated inwardly rectifying potassium channel KCNH2 (Homo sapiens, UniProt Q12809)", "sequence (Q12809 whole entry)": "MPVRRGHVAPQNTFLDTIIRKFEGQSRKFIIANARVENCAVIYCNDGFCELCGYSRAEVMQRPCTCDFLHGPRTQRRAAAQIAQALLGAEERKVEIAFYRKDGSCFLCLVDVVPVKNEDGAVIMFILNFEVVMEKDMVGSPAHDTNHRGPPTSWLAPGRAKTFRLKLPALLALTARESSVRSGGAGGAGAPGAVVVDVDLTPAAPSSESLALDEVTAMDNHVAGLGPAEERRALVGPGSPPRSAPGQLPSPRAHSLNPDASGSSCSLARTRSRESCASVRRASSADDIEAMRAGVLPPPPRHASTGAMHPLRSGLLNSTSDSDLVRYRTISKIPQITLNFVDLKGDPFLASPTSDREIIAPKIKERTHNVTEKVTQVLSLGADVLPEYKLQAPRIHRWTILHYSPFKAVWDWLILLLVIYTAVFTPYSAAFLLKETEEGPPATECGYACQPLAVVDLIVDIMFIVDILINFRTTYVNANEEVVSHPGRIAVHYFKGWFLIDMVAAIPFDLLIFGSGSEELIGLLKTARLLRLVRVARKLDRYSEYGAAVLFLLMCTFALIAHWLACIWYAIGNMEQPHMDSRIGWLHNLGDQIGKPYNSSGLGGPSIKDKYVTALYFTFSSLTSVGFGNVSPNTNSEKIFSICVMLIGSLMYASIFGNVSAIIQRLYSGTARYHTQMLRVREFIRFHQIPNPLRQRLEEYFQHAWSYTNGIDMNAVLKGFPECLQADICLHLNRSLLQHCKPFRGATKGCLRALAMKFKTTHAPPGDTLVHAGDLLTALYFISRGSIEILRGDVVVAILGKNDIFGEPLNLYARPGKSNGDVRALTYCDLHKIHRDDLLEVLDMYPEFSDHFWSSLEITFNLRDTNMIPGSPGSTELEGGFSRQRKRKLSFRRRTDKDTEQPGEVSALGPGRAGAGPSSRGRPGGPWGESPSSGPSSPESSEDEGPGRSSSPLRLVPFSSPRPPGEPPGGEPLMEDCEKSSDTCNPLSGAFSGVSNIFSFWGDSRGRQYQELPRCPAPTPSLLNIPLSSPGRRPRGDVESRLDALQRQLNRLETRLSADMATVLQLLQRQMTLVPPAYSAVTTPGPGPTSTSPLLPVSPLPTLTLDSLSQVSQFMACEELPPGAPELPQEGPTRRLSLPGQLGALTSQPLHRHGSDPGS", "experiment": "Inhibition of human ERG", "assay_type": "toxicity"}, "[8]": {"experiment": "Selectivity index, ratio of CC50 for cytotoxicity in human HepG2-hNTCP cells assessed as reduction in cell viability to EC50 for antiviral activity against HBV in human HepG2-hNTCP cells assessed as reduction in viral replication", "assay_type": "toxicity, cell-based", "conditions": "read-out: Ratio CC50/EC50"}, "[9]": {"experiment": "Clearance in male mouse at 5 mg/kg, iv", "assay_type": "ADME, organism-based", "conditions": "in vivo"}, "[10]": {"experiment": "Half life in male mouse at 20 mg/kg, iv", "assay_type": "ADME, organism-based", "conditions": "in vivo"}, "[11]": {"experiment": "Oral bioavailability in male mouse at 5 mg/kg", "assay_type": "ADME, organism-based", "conditions": "in vivo"}, "[12]": {"experiment": "Cmax in male mouse at 20 mg/kg, po", "assay_type": "ADME, organism-based", "conditions": "in vivo"}, "Hepatitis B virus [13]": {"system": "Hepatitis B virus", "experiment": "Antiviral activity against HBV infected in human HepG2 cells expressing NTCP assessed as fold reduction in capsid associated viral DNA level at 1 uM incubated for 6 days by Southern blot analysis relative to control", "assay_type": "functional", "conditions": "time 6 day"}, "[14]": {"target": "Core antigen (Hepatitis B virus) (UniProt Q03732)", "sequence (Q03732 as listed by the source)": "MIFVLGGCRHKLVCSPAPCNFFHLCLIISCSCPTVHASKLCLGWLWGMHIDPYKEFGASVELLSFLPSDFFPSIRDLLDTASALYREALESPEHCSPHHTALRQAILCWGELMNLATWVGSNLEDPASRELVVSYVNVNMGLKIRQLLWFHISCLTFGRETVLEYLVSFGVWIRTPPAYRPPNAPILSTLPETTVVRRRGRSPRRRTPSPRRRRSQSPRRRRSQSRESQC", "experiment": "Binding affinity to HBV core protein dimers extracted from Escherichia coli assessed as clump formation of assembled capsids by negative staining electron microscopic analysis"}, "Hepatitis B virus [15]": {"system": "Hepatitis B virus", "experiment": "Antiviral activity against HBV infected in human HepG2 cells expressing NTCP assessed as decrease in intracellular HBc level at 1 uM incubated for 6 days by indirect immunofluorescence staining based analysis", "assay_type": "functional, organism-based", "conditions": "time 6.0 day"}, "Hepatitis B virus [16]": {"system": "Hepatitis B virus", "experiment": "Antiviral activity against HBV infected in human HepG2 cells expressing NTCP assessed as ratio of capsid associated HBV DNA level at 1 uM incubated for 6 days by Western blot analysis (reference value: 100 %)", "assay_type": "functional", "conditions": "time 6 day"}}, "note": "The source made the active and inactive calls. The rule behind the calls is not given here."}
{"smiles": "Nc1cc(F)c(S(=O)(=O)NC2COC2)cc1C(=O)Nc1ccc(F)c(C(F)F)c1", "values": [{"measurement": "selectivity ratio", "setting": "[1]", "result": "> 17500"}, {"measurement": "remaining at 0.5 h", "setting": "[2]", "result": 45.4, "unit": "%"}, {"measurement": "remaining at 0.5 h", "setting": "[3]", "result": "> 100", "unit": "%"}, {"measurement": "IC50", "setting": "[4]", "result": "> 100", "unit": "µM"}, {"measurement": "IC50", "setting": "[5]", "result": "> 100", "unit": "µM"}, {"measurement": "IC50", "setting": "[6]", "result": "> 100", "unit": "µM"}, {"measurement": "IC50", "setting": "[7]", "result": "> 10", "unit": "µM"}, {"measurement": "selectivity ratio", "setting": "[8]", "result": 3160}, {"measurement": "clearance", "setting": "[9]", "result": 92.7, "unit": "mL/min/kg"}, {"measurement": "half-life", "setting": "[10]", "result": 9.6, "unit": "h"}, {"measurement": "bioavailability", "setting": "[11]", "result": 66.2, "unit": "%"}, {"measurement": "Cmax", "setting": "[12]", "result": 370, "unit": "ng/mL"}, {"measurement": "fold change (FC)", "setting": "Hepatitis B virus [13]", "result": 16}, {"measurement": "Activity", "setting": "[14]", "result": "Active"}, {"measurement": "Activity", "setting": "Hepatitis B virus [15]", "result": "Active; Compound Modestly Decreased Hbc Level"}, {"measurement": "Ratio", "setting": "Hepatitis B virus [16]", "result": 6, "unit": "%"}]}
